What follows are compounds tested against Factor D (Homo sapiens, UniProt P00746) (assay: Factor D esterolytic assay (Z-Lys-SBzl thioester substrate, DTNB, 405 nm)). Conditions: substrate Z-Lys-SBzl 1.29 mM, 100 mM HEPES, 500 mM NaCl, pH 7.5, 10% DMSO, tested a minimum of three times.
Factor D, sequence (P00746 26-253): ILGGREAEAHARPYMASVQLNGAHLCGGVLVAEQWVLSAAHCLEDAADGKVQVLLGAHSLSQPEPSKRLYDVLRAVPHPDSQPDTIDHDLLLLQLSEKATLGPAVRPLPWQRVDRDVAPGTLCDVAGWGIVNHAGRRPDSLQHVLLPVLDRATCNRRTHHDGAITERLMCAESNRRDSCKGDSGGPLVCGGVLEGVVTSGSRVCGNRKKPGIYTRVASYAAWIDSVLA
Format: biochemical
Outline: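 Human Factor D hydrolysis of Z-Lys-SBzl (1.29 mM) monitored at 405 nm via DTNB thiol detection for 600 s, 690 nm background subtracted. Buffer 100 mM HEPES, 500 mM NaCl, pH 7.5, 10% DMSO; substrate added immediately or after room-temperature preincubation. IC50 from percent inhibition of rate, at least three tests.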
Compound `C[C@@]12C[C@@H](C(=O)Nc3cccc(Br)n3)N(C(=O)Cn3c4ccc(C(F)(F)F)nc4c4c(N)ncnc43)[C@@H]1C2` [Compound 231g, (1R,3S,5R)-2-(2-(4-amino-6-(trifluoromethyl)-9H-pyrido[2′,3′:4,5]pyrrolo[2,3-d]pyrimidin-9-yl)acetyl)-N-(6-bromopyridin-2-yl)-5-methyl-2-azabicyclo[3.1.0]hexane-3-carboxamide] has an IC50 of less than 100 nM. `C[C@@]12C[C@@H](C(=O)Nc3cccc(Br)n3)N(C(=O)Cn3c4ncnc(N)c4c4cccc(C(=O)O)c43)[C@@H]1C2` [Compound 232a, 4-amino-9-(2-((1R,3S,5R)-3-((6-bromopyridin-2-yl)carbamoyl)-5-methyl-2-azabicyclo[3.1.0]hexan-2-yl)-2-oxoethyl)-9H-pyrimido[4,5-b]indole-8-carboxylic acid] gave an IC50 of less than 100 nM. For `Nc1ncnc2c1cc1n2C(C(=O)N2[C@@H](C(=O)Nc3cccc(Br)n3)C[C@@H]3C[C@@H]32)Oc2ccccc2-1` (stereo partly drawn) [Compound 233h, (1S,3R,5S)-2-(11-amino-6H-benzo[e]pyrimido[5′,4′:4,5]pyrrolo[1,2-c][,3]oxazine-6-carbonyl)-N-(6-bromopyridin-2-yl)-2-azabicyclo[3.1.0]hexane-3-carboxamide], the IC50 was less than 100 nM. Compound `Nc1ncnc2c1c1nc(C(F)(F)F)ccc1n2CC(=O)N1[C@@H]2C[C@@H]2C[C@H]1C(=O)Nc1cccc(Br)n1` [Compound 234a, (1R,3S,5R)-2-(2-(4-amino-6-(trifluoromethyl)-9H-pyrido[2′,3′:4,5]pyrrolo[2,3-d]pyrimidin-9-yl)acetyl)-N-(6-bromopyridin-2-yl)-2-azabicyclo[3.1.0]hexane-3-carboxamide] has an IC50 of less than 100 nM. `O=C1NCc2cnc3c(ccn3CC(=O)N3C[C@H](F)C[C@H]3C(=O)NCc3cccc(Cl)c3F)c2N1` [Compound 235a, (2S,4R)—N-(3-chloro-2-fluorobenzyl)-4-fluoro-1-(2-(2-oxo-3,4-dihydro-1H-pyrrolo[3′,2′:5,6]pyrido[4,3-d]pyrimidin-7 (2H)-yl)acetyl)pyrrolidine-2-carboxamide] gave an IC50 greater than 1000 nM. Compound `Nc1ncnc2c1c1cc(Cl)ccc1n2CC(=O)N1[C@@H]2C[C@@H]2C[C@H]1C(=O)Nc1cccc(Br)n1` [Compound 236f, (1R,3S,5R)-2-(2-(4-amino-6-chloro-9H-pyrimido[4,5-b]indol-9-yl)acetyl)-N-(6-bromopyridin-2-yl)-2-azabicyclo[3.1.0]hexane-3-carboxamide] has an IC50 of less than 100 nM. Compound `C[C@@]12C[C@@H](C(=O)Nc3cccc(Br)n3)N(C(=O)Cn3c4ccc(Cl)cc4c4c(N)ncnc43)[C@@H]1C2` [Compound 237a, (1R,3S,5R)-2-(2-(4-amino-6-chloro-9H-pyrimido[4,5-b]indol-9-yl)acetyl)-N-(6-bromopyridin-2-yl)-5-methyl-2-azabicyclo[3.1.0]hexane-3-carboxamide] has an IC50 of less than 100 nM. `COc1cc(Cl)cc2c3c(N)ncnc3n(CC(=O)N3[C@@H]4C[C@@H]4C[C@H]3C(=O)Nc3cccc(Br)n3)c12` [Compound 238g, (1R,3S,5R)-2-(2-(4-amino-6-chloro-8-methoxy-9H-pyrimido[4,5-b]indol-9-yl)acetyl)-N-(6-bromopyridin-2-yl)-2-azabicyclo[3.1.0]hexane-3-carboxamide] showed an IC50 of less than 100 nM. Compound `COc1cc(Cl)cc2c3c(N)ncnc3n(CC(=O)N3[C@H](C(=O)Nc4cccc(Br)n4)C[C@@]4(C)C[C@@H]34)c12` [Compound 239a, (1R,3S,5R)-2-(2-(4-amino-6-chloro-8-methoxy-9H-pyrimido[4,5-b]indol-9-yl)acetyl)-N-(6-bromopyridin-2-yl)-5-methyl-2-azabicyclo[3.1.0]hexane-3-carboxamide] has an IC50 of less than 100 nM. Work on `COC(=O)c1cc(OC)c2c(c1)c1c(N)ncnc1n2CC(=O)N1[C@@H]2C[C@@H]2C[C@H]1C(=O)Nc1cccc(Br)n1` [Compound 240g, methyl 4-amino-9-(2-((1R,3S,5R)-3-((6-bromopyridin-2-yl)carbamoyl)-2-azabicyclo[3.1.0]hexan-2-yl)-2-oxoethyl)-8-methoxy-9H-pyrimido[4,5-b]indole-6-carboxylate] yielded an IC50 of less than 100 nM. Work on `COC(=O)c1cc(OC)c2c(c1)c1c(N)ncnc1n2CC(=O)N1[C@H](C(=O)Nc2cccc(Br)n2)C[C@@]2(C)C[C@@H]12` [Compound 241a, methyl 4-amino-9-(2-((1R,3S,5R)-3-((6-bromopyridin-2-yl)carbamoyl)-5-methyl-2-azabicyclo[3.1.0]hexan-2-yl)-2-oxoethyl)-8-methoxy-9H-pyrimido[4,5-b]indole-6-carboxylate] yielded an IC50 of less than 100 nM. Work on `COc1cc([N+](=O)[O-])cc2c3c(N)ncnc3n(CC(=O)N3[C@@H]4C[C@@H]4C[C@H]3C(=O)Nc3cccc(Br)n3)c12` [Compound 242g, (1R,3S,5R)-2-(2-(4-amino-8-methoxy-6-nitro-9H-pyrimido[4,5-b]indol-9-yl)acetyl)-N-(6-bromopyridin-2-yl)-2-azabicyclo[3.1.0]hexane-3-carboxamide] yielded an IC50 of less than 100 nM. Compound `COc1cc([N+](=O)[O-])cc2c3c(N)ncnc3n(CC(=O)N3[C@H](C(=O)Nc4cccc(Br)n4)C[C@@]4(C)C[C@@H]34)c12` [Compound 243a, (1R,3S,5R)-2-(2-(4-amino-8-methoxy-6-nitro-9H-pyrimido[4,5-b]indol-9-yl)acetyl)-N-(6-bromopyridin-2-yl)-5-methyl-2-azabicyclo[3.1.0]hexane-3-carboxamide] has an IC50 of less than 100 nM. With `Nc1ncnc2c1c1cccc(-c3ccccc3)c1n2CC(=O)N1[C@@H]2C[C@@H]2C[C@H]1C(=O)Nc1cccc(Br)n1` [Compound 244d, (1R,3S,5R)-2-(2-(4-amino-8-phenyl-9H-pyrimido[4,5-b]indol-9-yl)acetyl)-N-(6-bromopyridin-2-yl)-2-azabicyclo[3.1.0]hexane-3-carboxamide] the IC50 was less than 100 nM. `C[C@@]12C[C@@H](C(=O)Nc3cccc(Br)n3)N(C(=O)Cn3c4ncnc(N)c4c4cccc(-c5ccccc5)c43)[C@@H]1C2` [Compound 245a, (1R,3S,5R)-2-(2-(4-amino-8-phenyl-9H-pyrimido[4,5-b]indol-9-yl)acetyl)-N-(6-bromopyridin-2-yl)-5-methyl-2-azabicyclo[3.1.0]hexane-3-carboxamide] was tested, and the IC50 was less than 100 nM. `Nc1ncnc2c1c1cc(C(F)(F)F)ccc1n2CC(=O)N1C[C@H](F)C[C@H]1C(=O)Nc1cccc(Cl)n1` [Compound 246b, (2S,4R)-1-(2-(4-amino-6-(trifluoromethyl)-9H-pyrimido[4,5-b]indol-9-yl)acetyl)-N-(6-chloropyridin-2-yl)-4-fluoropyrrolidine-2-carboxamide] showed an IC50 of less than 100 nM. Compound `CO[C@H]1C[C@@H](C(=O)Nc2cccc(Br)n2)N(C(=O)Cn2c3ccc(C(F)(F)F)cc3c3c(N)ncnc32)C1` [Compound 247d, (2S,4S)-1-(2-(4-amino-6-(trifluoromethyl)-9H-pyrimido[4,5-b]indol-9-yl)acetyl)-N-(6-bromopyridin-2-yl)-4-methoxypyrrolidine-2-carboxamide] has an IC50 of 100 to 1000 nM. With `CO[C@@H]1C[C@@H](C(=O)Nc2cccc(Br)n2)N(C(=O)Cn2c3ccc(C(F)(F)F)cc3c3c(N)ncnc32)C1` [Compound 248d, (2S,4R)-1-(2-(4-amino-6-(trifluoromethyl)-9H-pyrimido[4,5-b]indol-9-yl)acetyl)-N-(6-bromopyridin-2-yl)-4-methoxypyrrolidine-2-carboxamide] the IC50 was greater than 1000 nM. In the case of `COc1cccc2c1c1c(N)ncnc1n2CC(=O)N1[C@H](C(=O)Nc2nc(Br)ccc2C)C[C@@]2(C)C[C@@H]12` [Compound 249a, (1R,3S,5R)-2-(2-(4-amino-5-methoxy-9H-pyrimido[4,5-b]indol-9-yl)acetyl)-N-(6-bromo-3-methylpyridin-2-yl)-5-methyl-2-azabicyclo[3.1.0]hexane-3-carboxamide], the IC50 is reported as less than 100 nM. `N#Cc1ccc(CNC(=O)[C@@H]2CCCN2C(=O)Cn2c3ccccc3c3c(N)ncnc32)cc1` [Compound 250b, (S)-1-(2-(4-amino-9H-pyrimido[4,5-b]indol-9-yl)acetyl)-N-(4-cyanobenzyl)pyrrolidine-2-carboxamide] was tested, and the IC50 was greater than 1000 nM. For `Nc1ncnc2c1c1cc(C(F)(F)F)ccc1n2CC(=O)N1C(=O)OC[C@H]1C(=O)NCc1cccc(Cl)c1F` [Compound 251f, (S)-3-(2-(4-amino-6-(trifluoromethyl)-9H-pyrimido[4,5-b]indol-9-yl)acetyl)-N-(3-chloro-2-fluorobenzyl)-2-oxooxazolidine-4-carboxamide], the IC50 was 100 to 1000 nM. Compound `COc1ccc2c(c1)c1c(N)ncnc1n2CC(=O)N1[C@H](C(=O)Nc2nc(Br)ccc2C)C[C@@]2(C)C[C@@H]12` [Compound 252a, (1R,3S,5R)-2-(2-(4-amino-6-methoxy-9H-pyrimido[4,5-b]indol-9-yl)acetyl)-N-(6-bromo-3-methylpyridin-2-yl)-5-methyl-2-azabicyclo[3.1.0]hexane-3-carboxamide] has an IC50 of less than 100 nM. For `COc1ccc2c3c(N)ncnc3n(CC(=O)N3[C@H](C(=O)Nc4nc(Br)ccc4C)C[C@@]4(C)C[C@@H]34)c2c1` [Compound 253a, (1R,3S,5R)-2-(2-(4-amino-7-methoxy-9H-pyrimido[4,5-b]indol-9-yl)acetyl)-N-(6-bromo-3-methylpyridin-2-yl)-5-methyl-2-azabicyclo[3.1.0]hexane-3-carboxamide], the IC50 was less than 100 nM. In the case of `COc1cccc2c3c(N)ncnc3n(CC(=O)N3[C@H](C(=O)Nc4nc(Br)ccc4C)C[C@@]4(C)C[C@@H]34)c12` [Compound 254a, (1R,3S,5R)-2-(2-(4-amino-8-methoxy-9H-pyrimido[4,5-b]indol-9-yl)acetyl)-N-(6-bromo-3-methylpyridin-2-yl)-5-methyl-2-azabicyclo[3.1.0]hexane-3-carboxamide], the IC50 is reported as less than 100 nM. In the case of `Cc1ccc(-c2cc(C)c3c(c2)c2c(N)ncnc2n3CC(=O)N2[C@H](C(=O)Nc3cccc(Br)n3)C[C@@]3(C)C[C@@H]23)cc1` [Compound 255c, (1R,3S,5R)-2-(2-(4-amino-8-methyl-6-(p-tolyl)-9H-pyrimido[4,5-b]indol-9-yl)acetyl)-N-(6-bromopyridin-2-yl)-5-methyl-2-azabicyclo[3.1.0]hexane-3-carboxamide], the IC50 is reported as less than 100 nM.

Source: US12679843B2, “Pyrrolopyrimidine amines as complement inhibitors” (BioCryst Pharmaceuticals, Inc., priority 2020, dated 2026)
